Legend:
Format in all cases: in vivo, male Fischer 344 rats
[1] = Survival, final body weight and liver weight, 8-week study (Experimental Example 1); conditions: mean ± spread; DEN 95 mg/kg i.p. day 1, 8, 15; PB 60 mg/kg i.p. three times a week from week 5; PH day 28
Description: The eighty six male 4-week-old Fischer 344 rats used in this study were obtained from Charles River Japan, Inc. (Kanagawa). Grouping of the rats was performed according to the latest body weight. The animals were housed, two/cage in a climate-controlled animal room at temperature of 24±3° C., relative humidity of 55±15%, and ventilation rate of 10-20 times/h with 12-hour illumination, and allowed free access to the prescribed diets in every group and tap water.
To the animals in group 1, only a CRF-1 basal diet (Oriental Yest Co., Ltd., Tokyo) was fed. To the ones in group 2, only a CDAA (Dyets Inc., USA) diet was fed. The CDAA diet, whose composition is shown in Table 1, was fed from the day before the 1st administration day of DEN (day 1) and was stored under refrigeration until use. To the ones in group 3, a CRF-1 basal diet was fed and DEN was treated. The dose of DEN was set at 95 mg/kg body weight (2 ml/kg body weight) and rats were intraperitoneally treated once a week for the first three weeks (day 1, 8 and 15). To the ones in group 4, a CDAA diet was fed and DEN was treated. To the ones in group 5, a CRF-1 basal diet was fed and given DEN and PH. In the partial hepatectomy (PH), the left lobe and the right and left sublobes of the median lobe of the liver were excised. […]
All examination data were statistically evaluated by F-t test. […]

liver = experiment: Autopsy and histopathological examination of liver (H.E.-stained specimens); conditions: eight weeks; for Histopathological findings of H.E.-stained liver, in words: comparator group as stated in the value (groups 2 and 3: findings not observed in group 1 CRF-1)
Description: (§1) To the animals in group 1, only a CRF-1 basal diet (Oriental Yest Co., Ltd., Tokyo) was fed. To the ones in group 2, only a CDAA (Dyets Inc., USA) diet was fed. The CDAA diet, whose composition is shown in Table 1, was fed from the day before the 1st administration day of DEN (day 1) and was stored under refrigeration until use. To the ones in group 3, a CRF-1 basal diet was fed and DEN was treated. The dose of DEN was set at 95 mg/kg body weight (2 ml/kg body weight) and rats were intraperitoneally treated once a week for the first three weeks (day 1, 8 and 15). To the ones in group 4, a CDAA diet was fed and DEN was treated. To the ones in group 5, a CRF-1 basal diet was fed and given DEN and PH. In the partial hepatectomy (PH), the left lobe and the right and left sublobes of the median lobe of the liver were excised. PH was carried out on the day before the first administration of PB (day 28). To the ones in group 6, a CRF-1 basal diet was fed and given DEN, PH, and PB. The dose of PB was set at 60 mg/kg body weight (2 ml/kg body weight) and rats were intraperitoneally treated three times a week from week 5 (day 29, 32, 34, 36, 39, 41, 43, 46, 48, 50, 53, and 55). To the ones in group 7, a CDAA diet was fed and given DEN and PH. To the ones in group 8, a CDAA diet was fed and given DEN and PB. To the ones in group 9, a CDAA diet was fed and given DEN, PH, and PB. This experiment was started on Apr. 10, 1997.
At eight weeks (day 60-63), autopsy was performed after the animals were sacrificed by exsanguination under ether anesthesia. After the liver had been excised and fixed in 10% neutral buffered formalin fixative, paraffin sections and H.E.-stained specimens were prepared and microscopic examination was carried out.

GST-P-positive foci = experiment: Analysis of GST-P-stained liver specimens (GST-P-positive foci); conditions: for Focal area (GST-P positive) / Number of foci (GST-P positive) / Number of foci, focal size 0-0.03 mm^2 / Number of foci, focal size 0.03-0.1 mm^2 / Number of foci, focal size 0.1-0.3 mm^2 / Number of foci, focal size 0.3-1.0 mm^2 / Number of foci, focal size 1.0-3.0 mm^2 / Number of foci, focal size 3.0-10.0 mm^2 / Number of foci, focal size 10.0-30.0 mm^2 / Number of foci, focal size 30.0-100.0 mm^2 / Number of foci, focal size 100.0- mm^2: eight weeks; for GST-P-positive foci, comparison between groups in words: group 4 vs group 2, groups 5, 6 vs group 3, groups 7, 8, 9 vs group 4
Description: as §1
Immunohistochemical staining using polyclonal antibodies against GST-P was applied to facilitate quantitative evaluation of altered hepatocellular foci. Paraffin sections were stained immunohistochemically using the labeled streptavidin-biotin-peroxidase complex (LSAB) method for binding of rabbit anti-rat GST-Yp polyclonal antibody (1:1000; BIO PREP, IRELAND). The analytical procedure for the GST-P-stained specimens was as follows. Photographs (x10) of GST-P-stained specimens of whole cross-section of liver were taken. Photographs were jointed to construct complete cross-sectional image. GST-P-positive foci (hereinafter foci) were painted out with felt pen. Cross-sectional images were processed by Image Scanner (GT-6500, SEIKO EPSONCO., Ltd., Nagano) (using EpScan Mac). The area of each focus and total cross-sectional area of each image were measured using Adobe Photoshop and NIH image. Number of foci per unit area and focal area per unit area were calculated from data on number of foci, mean focal area, total focal area, and total organ area.
All examination data were statistically evaluated by F-t test. First, equal dispersion was tested by F test (significance level 5%). Student-t test was carried out where population variance was judged to be equal, and Welch-t test where it was judged different. Bilateral significance level was set at 5% and 1%.

Structure (SMILES) | Body weight (day 57) [1] | Altered hepatocellular foci, number of animals by grade (±, +, 2+, 3+) (liver; H.E.-stained liver) | Vacuolar degeneration, number of animals by grade (±, +, 2+, 3+) (liver; H.E.-stained liver) | Histopathological findings of H.E.-stained liver, in words (liver) | Focal area (GST-P positive) (GST-P-positive foci) | Number of foci (GST-P positive) (GST-P-positive foci) | Number of foci, focal size 0-0.03 mm^2 (GST-P-positive foci) | Number of foci, focal size 0.03-0.1 mm^2 (GST-P-positive foci) | Number of foci, focal size 0.1-0.3 mm^2 (GST-P-positive foci) | Number of foci, focal size 0.3-1.0 mm^2 (GST-P-positive foci) | Number of foci, focal size 1.0-3.0 mm^2 (GST-P-positive foci) | Number of foci, focal size 3.0-10.0 mm^2 (GST-P-positive foci) | Number of foci, focal size 10.0-30.0 mm^2 (GST-P-positive foci) | Number of foci, focal size 30.0-100.0 mm^2 (GST-P-positive foci) | Number of foci, focal size 100.0- mm^2 (GST-P-positive foci) | GST-P-positive foci, comparison between groups in words (GST-P-positive foci)
CCN(CC)N=O [CRF-1+DEN+PH, Diethylnitrosoamine] | 263.85 ± 3.96 ** * g | 4 | 4 | altered hepatocellular foci were more marked than in group 3 (CRF-1+DEN) | 0.015 ± 0.006 CT mm^2/mm^2Liver | 0.467 ± 0.162 . CT /mm^2Liver | 0.335 ± 0.124 . CT /mm^2Liver | 0.105 ± 0.030 CT /mm^2Liver | 0.023 ± 0.014 . CT /mm^2Liver | 0.003 ± 0.002 CT /mm^2Liver | 0.000 ± 0.000 . CT /mm^2Liver | 0.000 ± 0.000 . CT /mm^2Liver | 0.000 ± 0.000 . CT /mm^2Liver | 0.000 ± 0.000 . CT /mm^2Liver | 0.000 ± 0.000 . CT /mm^2Liver | focal areas were elevated
CCN(CC)N=O [CRF-1+DEN, Diethylnitrosoamine] | 257.52 ± 5.11 CT g | – | – | slight vacuolar degeneration and altered hepatocellular foci | 0.006 ± 0.002 CT mm^2/mm^2Liver | 0.350 ± 0.083 CT /mm^2Liver | 0.312 ± 0.070 CT /mm^2Liver | 0.035 ± 0.021 CT /mm^2Liver | 0.003 ± 0.005 CT /mm^2Liver | 0.000 ± 0.000 CT /mm^2Liver | 0.000 ± 0.000 CT /mm^2Liver | 0.000 ± 0.000 CT /mm^2Liver | 0.000 ± 0.000 CT /mm^2Liver | 0.000 ± 0.000 CT /mm^2Liver | 0.000 ± 0.000 CT /mm^2Liver | foci were observed

— patent publication US20020062491A1, “Method of producing primary hepatocellular carcinoma-bearing model animals” (WELFIDE CORPORATION, priority 2000, published 2002)
